Results from the supplement of paper PMC10307832.

Assays:
Assay in all cases: relative viability (nuclei count vs DMSO), 5 days (fraction); higher = more cells survive
[1] = compound: COc1cc(-c2nn([C@H]3CC[C@H](N4CCN(C(C)=O)CC4)CC3)c3ncnc(N)c23)ccc1NC(=O)c1cc2ccccc2n1C + NC(=O)Nc1cc(-c2cccc(F)c2)sc1C(=O)N[C@H]1CCCNC1 [AZD7762] (partner 0.2 µM)
Procedure, shortened: (§1)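 After 5 days of treatment, lung cancer cells in 1536-well plates were fixed and stained in a single step (final 0.05% Triton X-100, 1% formaldehyde, 1 ug/ml Hoechst) and their nuclei counted on 4× images. Treatment had been applied by pin tool the day after seeding as one drug alone or as a fixed anchor-drug dose with five library-drug doses (not always all listed) in √10 steps. Relative viability is the nuclei count of treated wells divided by that of vehicle wells, and values are medians of duplicate plates.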

Midostaurin + AZD7762 = compound: CO[C@@H]1[C@H](N(C)C(=O)c2ccccc2)C[C@H]2O[C@]1(C)n1c3ccccc3c3c4c(c5c6ccccc6n2c5c31)C(=O)NC4 [Midostaurin] + NC(=O)Nc1cc(-c2cccc(F)c2)sc1C(=O)N[C@H]1CCCNC1 [AZD7762] (partner 0.2 µM)
Procedure, shortened: as §1

Midostaurin + Vorinostat = compound: CO[C@@H]1[C@H](N(C)C(=O)c2ccccc2)C[C@H]2O[C@]1(C)n1c3ccccc3c3c4c(c5c6ccccc6n2c5c31)C(=O)NC4 [Midostaurin] + O=C(CCCCCCC(=O)Nc1ccccc1)NO [Vorinostat] (partner 1 µM)
Procedure, shortened: as §1

Midostaurin + Bortezomib = compound: CO[C@@H]1[C@H](N(C)C(=O)c2ccccc2)C[C@H]2O[C@]1(C)n1c3ccccc3c3c4c(c5c6ccccc6n2c5c31)C(=O)NC4 [Midostaurin] + CC(C)C[C@H](NC(=O)[C@H](Cc1ccccc1)NC(=O)c1cnccn1)B(O)O [Bortezomib] (partner 0.002 µM)
Procedure, shortened: as §1

Midostaurin + Luminespib = compound: CO[C@@H]1[C@H](N(C)C(=O)c2ccccc2)C[C@H]2O[C@]1(C)n1c3ccccc3c3c4c(c5c6ccccc6n2c5c31)C(=O)NC4 [Midostaurin] + CCNC(=O)c1noc(-c2cc(C(C)C)c(O)cc2O)c1-c1ccc(CN2CCOCC2)cc1 [Luminespib] (partner 0.01 µM)
Procedure, shortened: as §1

Row | Cell Line | relative viability ([1]; first compound 0.0128 µM) | relative viability ([1]; first compound 0.04048 µM) | relative viability ([1]; first compound 0.128 µM) | relative viability ([1]; first compound 1.28 µM) | relative viability (Midostaurin + AZD7762; first compound 0.01 µM) | relative viability (Midostaurin + AZD7762; first compound 0.03162 µM) | relative viability (Midostaurin + AZD7762; first compound 0.1 µM) | relative viability (Midostaurin + AZD7762; first compound 0.3162 µM) | relative viability (Midostaurin + Vorinostat; first compound 0.01 µM) | relative viability (Midostaurin + Vorinostat; first compound 0.03162 µM) | relative viability (Midostaurin + Vorinostat; first compound 0.1 µM) | relative viability (Midostaurin + Vorinostat; first compound 0.3162 µM) | relative viability (Midostaurin + Bortezomib; first compound 0.01 µM) | relative viability (Midostaurin + Bortezomib; first compound 0.03162 µM) | relative viability (Midostaurin + Bortezomib; first compound 0.1 µM) | relative viability (Midostaurin + Bortezomib; first compound 0.3162 µM) | relative viability (Midostaurin + Luminespib; first compound 0.03162 µM) | relative viability (Midostaurin + Luminespib; first compound 0.1 µM) | relative viability (Midostaurin + Luminespib; first compound 0.3162 µM) | relative viability (Midostaurin + Luminespib; first compound 0.01 µM)
1 | HCC-44 | 1.13 | 1.17 | 0.981 | 1.19 | 0.961 | 0.978 | 0.998 | 0.986 | 1.08 | 1.06 | 1.11 | 1.16 | 0.84 | 0.881 | 0.796 | 0.762 | 1.1 | 0.964 | 1.11 | 
2 | HCC-827 | 0.211 | 0.212 | 0.199 | 0.138 | 0.246 | 0.206 | 0.237 | 0.215 | 0.869 | 0.724 | 0.897 | 0.873 | 0.984 | 0.951 | 0.992 | 1.07 | 0.644 | 0.709 | 0.813 | 0.51
3 | NCI-H1623 |  |  |  |  |  |  |  |  |  |  |  |  |  |  |  |  | 0.647 | 0.513 | 0.632 | 0.526
4 | NCI-H2347 | 0.773 | 0.55 | 0.64 | 0.565 | 0.799 | 0.774 | 0.712 | 0.587 | 0.575 | 0.511 | 0.602 | 0.419 | 0.842 | 0.95 | 0.956 | 0.976 | 0.727 | 0.366 | 0.325 | 0.422
5 | PC-14 | 0.42 | 0.417 | 0.365 | 0.355 | 0.33 | 0.42 | 0.329 | 0.328 | 0.719 | 0.673 | 0.67 | 0.666 | 0.839 | 0.713 | 0.811 | 0.815 | 0.197 | 0.147 | 0.152 | 0.136
6 | NCI-H1651 | 0.466 | 0.457 | 0.49 | 0.397 | 0.455 | 0.557 | 0.459 | 0.478 | 0.566 | 0.571 | 0.566 | 0.593 | 0.955 | 1.01 | 1.02 | 1.03 | 0.731 | 0.664 | 0.66 | 0.905
7 | HARA | 0.257 | 0.432 | 0.124 | 0.281 | 0.301 | 0.475 | 0.394 | 0.299 | 0.482 | 0.603 | 0.466 | 0.505 | 1.12 | 1.03 | 1.07 | 1.12 | 0.712 | 0.681 | 0.76 | 0.917
8 | NCI-H1650 |  |  |  |  |  |  |  |  | 0.57 | 0.606 | 0.585 | 0.793 | 0.214 | 0.227 | 0.206 | 0.213 | 0.175 | 0.187 | 0.173 | 0.19
9 | NCI-H1395 | 0.459 | 0.394 | 0.402 | 0.322 | 0.407 | 0.427 | 0.408 | 0.429 | 0.651 | 0.856 | 0.671 | 0.682 |  |  |  |  | 0.702 | 0.573 | 0.665 | 0.837
10 | LU99A | 0.327 | 0.404 | 0.352 | 0.35 | 0.29 | 0.441 | 0.303 | 0.255 | 0.672 | 0.433 | 0.454 | 0.479 | 1.08 | 1.17 | 1.1 | 0.998 | 0.221 | 0.228 | 0.291 | 0.268
11 | NCI-H1355 | 0.75 | 0.788 | 0.654 | 0.619 | 0.703 | 0.798 | 0.766 | 0.674 | 0.665 | 0.672 | 0.619 | 0.667 | 1.13 | 1.16 | 1.31 | 1.26 | 0.762 | 0.666 | 0.702 | 0.682
12 | HCC-78 | 0.52 | 0.851 | 0.52 | 0.331 | 0.682 | 1.09 | 0.644 | 0.483 | 0.545 | 0.438 | 0.365 | 0.312 | 0.431 | 0.45 | 0.474 | 0.328 |  |  |  | 
13 | NCI-H1563 |  |  |  |  |  |  |  |  |  |  |  |  | 0.888 | 0.937 | 0.761 | 0.888 | 0.515 | 0.501 | 0.492 | 0.505
14 | HCC-15 | 1.46 | 1.24 | 1.21 | 1.28 | 1.16 | 0.98 | 0.532 | 1.07 | 0.942 | 0.806 | 0.785 | 0.765 | 1.04 | 0.946 | 0.999 | 1.08 | 0.38 | 0.308 | 0.165 | 0.305
15 | EKVX | 0.79 | 0.691 | 0.685 | 0.385 | 0.604 | 0.713 | 0.883 | 0.778 | 0.735 | 0.714 | 0.808 | 0.583 | 1.01 | 0.995 | 0.947 | 0.9 | 0.868 | 0.823 | 0.749 | 0.883
16 | NCI-H2087 | 1.31 |  | 1.18 | 1.08 | 1.39 | 1.16 | 1.36 | 1.03 | 0.56 | 0.528 | 0.462 | 0.429 | 0.827 | 0.717 | 0.542 | 0.841 | 0.18 | 0.154 | 0.169 | 0.258
17 | LK-2 | 0.485 | 0.243 | 0.321 | 0.188 | 0.494 | 0.408 | 0.346 | 0.679 | 0.252 | 0.258 | 0.328 | 0.277 |  |  |  |  | 0.221 | 0.187 | 0.199 | 0.191
